# Assay results reported in paper doi:10.1101/2024.06.10.598391v1 (bioRxiv, 2024).
# What was measured:
# [1] = Micelle morphology by negative-stain TEM; format: physicochemical; conditions: 5 µM; for Morphology: negative-stain TEM (NanoW), 120 kV, categories by L/D; for Cylinder length / Sphere diameter: negative-stain TEM
# [2] = Secondary structure by circular dichroism; format: physicochemical; conditions: CD, 40 μM in PBS; for organized secondary structure (α-helix and β-sheet): sum of α-helix and β-sheet; for combined α-helix and random coil content: sum of α-helix and random coil
# [3] = system: RAW 264.7 (macrophage-like cells - Mφs); test: Cell viability of LPS-treated Mφs by flow cytometry; format: cell-based, murine; conditions: for cell viability relative to untreated cells: 10 µM
# [4] = system: secreted tumor necrosis factor-α (TNF-α) of LPS-activated RAW 264.7 Mφs; test: TNF-α secretion of LPS-activated Mφs; format: cell-based, murine; conditions: 6 h, ELISA
# [5] = system: RAW 264.7 (macrophage-like cells - Mφs); test: Micelle surface attachment and internalization by Mφs, confocal microscopy; format: cell-based, murine; conditions: 5 µM, 1:19 FAM-PA:Non-FAM-PA, LPS 0.1 µg/mL
# [6] = system: RAW 264.7 (macrophage-like cells - Mφs); test: Micelle association with Mφs by flow cytometry; format: cell-based, murine; conditions: 5 µM, 1:19 FAM-PA:Non-FAM-PA
# [7] = LPS-treated (0.1 µg/mL) Mφs, six hours, flow cytometry
Substance,Morphology [1],Cylinder length [1],Sphere diameter [1],also measured
Ac-NSDLIATDSYTRMRKQVLANKKFHYLVN-NH2 [^SVIP],Amorphous aggregates,–,–,"organized secondary structure (α-helix and β-sheet) [2]: 46.6%; viability of treated cells ([3]; LPS-treated Mφs, 5 µM, 6 hours (Figure 3a)): remained high"
VIP(^SVIP)-KEKEEEEE-CONH2 [Palm2K-VIP-(KE)2E4],Spheres + Short/Small Cylinders,20 - 300 nm,10 - 20 nm,micelle location on/in Mφs ([5]; 6 hours): cell membranes coated; MFI of micelle-associated Mφs ([6]; 6 hours): greatest Mφ association
VIP(^SVIP)-KEKEEEEE-CONH2 [Palm2K-^SVIP-(KE)2E4],Spheres + Short/Small Cylinders,50 - 250 nm,10 - 20 nm,–
VIP(^SVIP)-KEKEKEKE-CONH2 [PalmK-VIP-(KE)4],Mostly Large/Long Cylinders,1000 - 9000 nm,–,"cell viability relative to untreated cells [3, 7]: 70 - 80%; micelle location on/in Mφs ([5]; 1 hour): only found along the Mφ cell membrane"
VIP(^SVIP)-KEKEKEKE-CONH2 [PalmK-^SVIP-(KE)4],Mostly Large/Long Cylinders,1000 - 9000 nm,–,–

# Continued, in another order:
Morphology [1],Cylinder length [1],Sphere diameter [1],Substance,also measured
lacks any particle structure,–,–,"Ac-HSDAVFTDNYTRLRKQMAVKKYLNSILN-CONH2 [VIP, reference compound]","organized secondary structure (α-helix and β-sheet) [2]: 49.4%; cytotoxicity ([3]; LPS-treated (0.1 µg/mL) Mφs, up to 5 µM, six hours, flow cytometry): Minimal cytotoxicity; modulation of TNF-α secretion ([4]; 1 µM and 2.5 µM): No appreciable modulation; modulation of TNF-α secretion ([4]; 5 µM and 10 µM): significant TNF-α suppression"
Small/Medium Cylinders,100 - 700 nm,–,VIP(^SVIP)-KEKEKEKE-CONH2 [Palm2K-VIP-(KE)4],"cell viability relative to untreated cells [3, 7]: 70 - 80%; modulation of TNF-α secretion ([4]; 5 µM and 10 µM): significant TNF-α suppression; micelle location on/in Mφs ([5]; 1 hour): only found along the Mφ cell membrane"
Spheres,–,10 - 15 nm,VIP(^SVIP)-KEKEKEKE-CONH2 [Palm2K-^SVIP-(KE)4],combined α-helix and random coil content [2]: 41.5%
Mostly Spheres,–,10 - 15 nm,VIP(^SVIP)-KEKEKKKK-CONH2 [Palm2K-VIP-(KE)2K4],combined α-helix and random coil content [2]: 46.5%
Small/Medium Cylinders,100 - 400 nm,–,VIP(^SVIP)-KEKEKKKK-CONH2 [Palm2K-^SVIP-(KE)2K4],percentage of Mφs associated with fluorophore-labeled micelles ([6]; 1 hour): Mφs preferred to associate
